Assay results from patent US10815230B2, “Casein kinase 1 delta inhibitor” (ELECTROPHORETICS LIMITED, priority 2015, dated 2020).

Columns and labels:
Assay type in all cases: biochemical
CK1a1 = CK1a1 (Homo sapiens, UniProt P48729); assay: Kinase selectivity, % remaining activity; details: CK1a1, 10 μM compound, 10 μM ATP, duplicate
Experimental: (§1) Compounds were tested in single dose duplicate mode at a concentration of 10 μM (in DMSO) and reactions were carried out at 10 μM ATP, Table 3 reports the % of remaining activity (relative to DMSO).

[1] = target: CK1d (casein kinase 1 delta) (Homo sapiens, UniProt P48730); assay: Kinase selectivity, % remaining activity and IC50; details: 10 μM ATP
Experimental: (§2) A two-tier strategy to determine the selectivity of compound A was applied: first, the compound was tested at a single concentration (in duplicate) to determine the %-remaining activity of the target kinase. Subsequently, the IC50 of compound A and comparative compounds for casein kinase 1 delta were determined.
as §1
Control compound GW5074 (Tocris®) was tested starting at 20 μM. Reactions were carried out at 10 μM ATP.

CK1g3 = CK1g3 (Homo sapiens, UniProt Q9Y6M4); assay: Kinase selectivity, % remaining activity; details: 10 μM compound, 10 μM ATP, duplicate
Experimental: as §2, §1

YES/YES1 = YES/YES1 (Homo sapiens, UniProt P07947); assay: Kinase selectivity, % remaining activity; details: 10 μM compound, 10 μM ATP, duplicate
Experimental: as §2, §1

KDR/VEGFR2 = KDR/VEGFR2 (Homo sapiens, UniProt P35968); assay: Kinase selectivity, % remaining activity; details: 10 μM compound, 10 μM ATP, duplicate
Experimental: as §2, §1

TNIK = TNIK (Homo sapiens, UniProt Q9UKE5); assay: Kinase selectivity, % remaining activity; details: 10 μM compound, 10 μM ATP, duplicate
Experimental: as §2, §1

GSK3B = GSK3B (Homo sapiens, UniProt P49841); assay: Kinase selectivity, % remaining activity; details: 10 μM compound, 10 μM ATP, duplicate
Experimental: as §2, §1

PKA = PKA (Homo sapiens, UniProt P17612); assay: Kinase selectivity, % remaining activity; details: 10 μM compound, 10 μM ATP, duplicate
Experimental: as §2, §1

ALK5/TGFBR1 = target: T1, ALK5/TGFBR1 (Homo sapiens, UniProt P36897); assay: Kinase selectivity, % remaining activity; details: 10 μM compound, 10 μM ATP, duplicate
T1 sequence (P36897 34-503): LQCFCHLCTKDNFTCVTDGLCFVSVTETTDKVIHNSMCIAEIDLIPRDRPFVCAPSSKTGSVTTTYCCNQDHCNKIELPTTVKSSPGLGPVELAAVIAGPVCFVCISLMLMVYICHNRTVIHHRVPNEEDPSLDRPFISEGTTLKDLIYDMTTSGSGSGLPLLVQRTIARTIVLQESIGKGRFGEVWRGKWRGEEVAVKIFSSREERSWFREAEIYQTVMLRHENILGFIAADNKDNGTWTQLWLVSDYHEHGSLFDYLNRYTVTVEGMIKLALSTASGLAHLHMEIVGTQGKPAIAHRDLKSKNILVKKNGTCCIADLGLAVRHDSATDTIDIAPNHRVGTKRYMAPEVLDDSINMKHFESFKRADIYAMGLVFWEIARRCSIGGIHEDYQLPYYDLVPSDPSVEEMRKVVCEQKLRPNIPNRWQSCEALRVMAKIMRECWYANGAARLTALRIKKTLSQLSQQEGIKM
Experimental: as §2, §1

ABL2/ARG = ABL2/ARG (Homo sapiens, UniProt P42684); assay: Kinase selectivity, % remaining activity; details: 10 μM compound, 10 μM ATP, duplicate
Experimental: as §2, §1

RIPK2 = RIPK2 (Homo sapiens, UniProt O43353); assay: Kinase selectivity, % remaining activity; details: 10 μM compound, 10 μM ATP, duplicate
Experimental: as §2, §1

PIM3 = PIM3 (Homo sapiens, UniProt Q86V86); assay: Kinase selectivity, % remaining activity; details: 10 μM compound, 10 μM ATP, duplicate
Experimental: as §2, §1

CLK2 = CLK2 (Homo sapiens, UniProt P49760); assay: Kinase selectivity, % remaining activity; details: 10 μM compound, 10 μM ATP, duplicate
Experimental: as §2, §1

JNK2 = JNK2 (Homo sapiens, UniProt P45984); assay: Kinase selectivity, % remaining activity; details: 10 μM compound, 10 μM ATP, duplicate
Experimental: as §2, §1

c-Src = c-Src (Homo sapiens, UniProt P12931); assay: Kinase selectivity, % remaining activity; details: 10 μM compound, 10 μM ATP, duplicate
Experimental: as §2, §1

FGFR1 = FGFR1 (Homo sapiens, UniProt P11362); assay: Kinase selectivity, % remaining activity; details: 10 μM compound, 10 μM ATP, duplicate
Experimental: as §2, §1

EPHA2 = EPHA2 (Homo sapiens, UniProt P29317); assay: Kinase selectivity, % remaining activity; details: 10 μM compound, 10 μM ATP, duplicate
Experimental: as §2, §1

MSK1/RPS6KA5 = MSK1/RPS6KA5 (Homo sapiens, UniProt O75582); assay: Kinase selectivity, % remaining activity; details: 10 μM compound, 10 μM ATP, duplicate
Experimental: as §2, §1

PDK1/PDPK1 = target: T2, PDK1/PDPK1 (Homo sapiens, UniProt O15530); assay: Kinase selectivity, % remaining activity; details: 10 μM compound, 10 μM ATP, duplicate
T2 sequence (O15530 1-556): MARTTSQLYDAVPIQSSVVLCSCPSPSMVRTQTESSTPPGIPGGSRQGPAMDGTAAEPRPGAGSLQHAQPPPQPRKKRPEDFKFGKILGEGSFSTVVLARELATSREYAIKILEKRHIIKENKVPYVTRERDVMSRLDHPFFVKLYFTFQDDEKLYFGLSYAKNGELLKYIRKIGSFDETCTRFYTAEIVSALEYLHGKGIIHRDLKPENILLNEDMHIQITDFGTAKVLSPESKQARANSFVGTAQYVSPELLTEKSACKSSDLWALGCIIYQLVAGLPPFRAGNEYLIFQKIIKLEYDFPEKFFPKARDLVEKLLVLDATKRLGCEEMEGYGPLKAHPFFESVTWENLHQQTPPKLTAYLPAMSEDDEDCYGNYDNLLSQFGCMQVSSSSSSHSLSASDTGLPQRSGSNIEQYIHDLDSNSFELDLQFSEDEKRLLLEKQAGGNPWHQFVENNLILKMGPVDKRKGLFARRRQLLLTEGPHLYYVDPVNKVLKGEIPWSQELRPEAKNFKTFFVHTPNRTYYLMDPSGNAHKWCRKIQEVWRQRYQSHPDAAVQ
Experimental: as §2, §1

EGFR = EGFR (Homo sapiens, UniProt P00533); assay: Kinase selectivity, % remaining activity; details: 10 μM compound, 10 μM ATP, duplicate
Experimental: as §2, §1

CDK5/p25 = CDK5/p25 (Homo sapiens, UniProt Q00535); assay: Kinase selectivity, % remaining activity; details: 10 μM compound, 10 μM ATP, duplicate
Experimental: as §2, §1

[2] = read-out: % of remaining activity (relative to DMSO)

CK1d (casein kinase 1 delta), sequence (P48730 whole entry): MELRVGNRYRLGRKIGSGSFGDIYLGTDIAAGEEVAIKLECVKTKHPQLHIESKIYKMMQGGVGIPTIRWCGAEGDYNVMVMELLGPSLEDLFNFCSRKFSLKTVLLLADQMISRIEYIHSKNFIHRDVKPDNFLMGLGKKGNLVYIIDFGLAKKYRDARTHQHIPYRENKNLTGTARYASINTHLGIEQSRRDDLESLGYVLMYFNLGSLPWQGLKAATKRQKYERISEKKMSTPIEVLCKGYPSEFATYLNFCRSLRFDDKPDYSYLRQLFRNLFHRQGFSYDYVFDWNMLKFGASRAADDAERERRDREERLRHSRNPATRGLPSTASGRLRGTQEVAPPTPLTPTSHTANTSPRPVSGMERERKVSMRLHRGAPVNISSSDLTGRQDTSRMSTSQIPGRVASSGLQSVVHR
CK1a1, sequence (P48729 whole entry): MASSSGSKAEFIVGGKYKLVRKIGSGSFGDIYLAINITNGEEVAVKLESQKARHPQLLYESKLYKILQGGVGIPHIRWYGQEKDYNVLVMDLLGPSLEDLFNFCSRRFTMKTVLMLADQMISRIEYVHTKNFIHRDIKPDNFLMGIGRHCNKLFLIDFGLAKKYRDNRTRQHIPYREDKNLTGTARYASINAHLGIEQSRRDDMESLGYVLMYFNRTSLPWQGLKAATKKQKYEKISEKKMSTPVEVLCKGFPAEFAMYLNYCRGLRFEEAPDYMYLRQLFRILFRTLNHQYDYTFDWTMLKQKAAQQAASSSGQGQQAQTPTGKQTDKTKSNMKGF
CLK2, sequence (P49760 whole entry): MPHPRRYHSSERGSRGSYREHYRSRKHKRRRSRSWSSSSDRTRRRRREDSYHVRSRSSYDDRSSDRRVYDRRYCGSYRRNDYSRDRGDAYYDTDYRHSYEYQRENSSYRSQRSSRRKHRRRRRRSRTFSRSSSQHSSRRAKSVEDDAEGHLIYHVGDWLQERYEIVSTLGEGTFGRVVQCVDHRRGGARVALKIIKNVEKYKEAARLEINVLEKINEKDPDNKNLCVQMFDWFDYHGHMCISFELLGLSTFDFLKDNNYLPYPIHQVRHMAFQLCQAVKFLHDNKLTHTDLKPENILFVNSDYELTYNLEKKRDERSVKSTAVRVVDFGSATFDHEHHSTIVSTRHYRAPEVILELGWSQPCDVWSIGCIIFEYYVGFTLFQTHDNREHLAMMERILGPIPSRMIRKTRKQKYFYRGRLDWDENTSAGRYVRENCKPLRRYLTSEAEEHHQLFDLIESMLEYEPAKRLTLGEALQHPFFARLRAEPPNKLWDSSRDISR
MSK1/RPS6KA5, sequence (O75582 whole entry): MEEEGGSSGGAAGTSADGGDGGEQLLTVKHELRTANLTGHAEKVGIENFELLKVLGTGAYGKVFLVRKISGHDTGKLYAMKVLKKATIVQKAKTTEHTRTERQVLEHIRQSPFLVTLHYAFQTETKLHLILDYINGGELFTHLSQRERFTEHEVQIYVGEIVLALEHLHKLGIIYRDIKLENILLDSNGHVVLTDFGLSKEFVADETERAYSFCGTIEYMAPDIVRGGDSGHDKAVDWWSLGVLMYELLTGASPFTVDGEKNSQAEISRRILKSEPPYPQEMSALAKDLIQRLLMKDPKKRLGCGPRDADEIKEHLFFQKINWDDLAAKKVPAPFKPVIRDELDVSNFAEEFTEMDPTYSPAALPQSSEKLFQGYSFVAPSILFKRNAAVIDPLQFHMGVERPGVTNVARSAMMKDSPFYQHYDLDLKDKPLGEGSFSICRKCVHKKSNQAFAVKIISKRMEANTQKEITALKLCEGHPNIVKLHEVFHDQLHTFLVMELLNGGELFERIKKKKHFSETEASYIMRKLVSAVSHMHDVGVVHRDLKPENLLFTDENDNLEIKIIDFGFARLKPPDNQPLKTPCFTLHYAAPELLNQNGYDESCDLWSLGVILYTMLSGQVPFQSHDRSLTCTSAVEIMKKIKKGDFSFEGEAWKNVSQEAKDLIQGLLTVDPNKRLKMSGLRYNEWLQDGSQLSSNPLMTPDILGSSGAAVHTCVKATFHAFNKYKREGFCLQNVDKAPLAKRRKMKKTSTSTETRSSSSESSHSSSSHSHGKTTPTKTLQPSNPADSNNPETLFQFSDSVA
ABL2/ARG, sequence (P42684 whole entry): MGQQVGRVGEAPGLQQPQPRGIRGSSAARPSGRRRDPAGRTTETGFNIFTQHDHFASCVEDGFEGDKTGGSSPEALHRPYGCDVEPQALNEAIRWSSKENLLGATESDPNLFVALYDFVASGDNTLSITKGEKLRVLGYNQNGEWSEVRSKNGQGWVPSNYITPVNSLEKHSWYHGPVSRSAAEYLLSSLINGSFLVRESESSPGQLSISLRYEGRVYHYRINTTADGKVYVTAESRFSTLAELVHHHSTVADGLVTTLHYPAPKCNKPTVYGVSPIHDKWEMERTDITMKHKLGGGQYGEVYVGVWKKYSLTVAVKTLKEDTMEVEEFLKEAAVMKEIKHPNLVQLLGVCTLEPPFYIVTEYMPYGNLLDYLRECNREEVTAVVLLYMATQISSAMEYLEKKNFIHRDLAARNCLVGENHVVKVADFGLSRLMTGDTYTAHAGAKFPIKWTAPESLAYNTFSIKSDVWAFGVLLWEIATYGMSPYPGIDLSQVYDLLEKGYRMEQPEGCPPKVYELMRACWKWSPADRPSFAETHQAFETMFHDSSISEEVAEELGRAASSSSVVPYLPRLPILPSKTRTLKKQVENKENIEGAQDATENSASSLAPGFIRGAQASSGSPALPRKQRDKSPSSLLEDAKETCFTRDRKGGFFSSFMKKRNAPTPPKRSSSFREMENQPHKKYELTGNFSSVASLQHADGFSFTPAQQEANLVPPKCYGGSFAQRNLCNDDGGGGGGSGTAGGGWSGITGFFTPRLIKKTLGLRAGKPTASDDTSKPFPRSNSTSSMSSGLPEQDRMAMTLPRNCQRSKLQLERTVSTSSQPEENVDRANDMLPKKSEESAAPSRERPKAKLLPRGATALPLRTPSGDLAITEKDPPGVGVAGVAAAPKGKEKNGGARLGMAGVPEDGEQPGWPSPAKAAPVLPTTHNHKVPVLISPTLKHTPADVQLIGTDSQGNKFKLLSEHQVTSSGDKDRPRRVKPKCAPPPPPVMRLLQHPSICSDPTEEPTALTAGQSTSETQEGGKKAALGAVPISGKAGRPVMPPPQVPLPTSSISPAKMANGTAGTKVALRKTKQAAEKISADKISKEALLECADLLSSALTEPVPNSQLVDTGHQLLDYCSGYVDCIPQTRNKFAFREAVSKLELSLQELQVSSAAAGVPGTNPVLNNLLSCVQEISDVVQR
KDR/VEGFR2, sequence (P35968 20-1356): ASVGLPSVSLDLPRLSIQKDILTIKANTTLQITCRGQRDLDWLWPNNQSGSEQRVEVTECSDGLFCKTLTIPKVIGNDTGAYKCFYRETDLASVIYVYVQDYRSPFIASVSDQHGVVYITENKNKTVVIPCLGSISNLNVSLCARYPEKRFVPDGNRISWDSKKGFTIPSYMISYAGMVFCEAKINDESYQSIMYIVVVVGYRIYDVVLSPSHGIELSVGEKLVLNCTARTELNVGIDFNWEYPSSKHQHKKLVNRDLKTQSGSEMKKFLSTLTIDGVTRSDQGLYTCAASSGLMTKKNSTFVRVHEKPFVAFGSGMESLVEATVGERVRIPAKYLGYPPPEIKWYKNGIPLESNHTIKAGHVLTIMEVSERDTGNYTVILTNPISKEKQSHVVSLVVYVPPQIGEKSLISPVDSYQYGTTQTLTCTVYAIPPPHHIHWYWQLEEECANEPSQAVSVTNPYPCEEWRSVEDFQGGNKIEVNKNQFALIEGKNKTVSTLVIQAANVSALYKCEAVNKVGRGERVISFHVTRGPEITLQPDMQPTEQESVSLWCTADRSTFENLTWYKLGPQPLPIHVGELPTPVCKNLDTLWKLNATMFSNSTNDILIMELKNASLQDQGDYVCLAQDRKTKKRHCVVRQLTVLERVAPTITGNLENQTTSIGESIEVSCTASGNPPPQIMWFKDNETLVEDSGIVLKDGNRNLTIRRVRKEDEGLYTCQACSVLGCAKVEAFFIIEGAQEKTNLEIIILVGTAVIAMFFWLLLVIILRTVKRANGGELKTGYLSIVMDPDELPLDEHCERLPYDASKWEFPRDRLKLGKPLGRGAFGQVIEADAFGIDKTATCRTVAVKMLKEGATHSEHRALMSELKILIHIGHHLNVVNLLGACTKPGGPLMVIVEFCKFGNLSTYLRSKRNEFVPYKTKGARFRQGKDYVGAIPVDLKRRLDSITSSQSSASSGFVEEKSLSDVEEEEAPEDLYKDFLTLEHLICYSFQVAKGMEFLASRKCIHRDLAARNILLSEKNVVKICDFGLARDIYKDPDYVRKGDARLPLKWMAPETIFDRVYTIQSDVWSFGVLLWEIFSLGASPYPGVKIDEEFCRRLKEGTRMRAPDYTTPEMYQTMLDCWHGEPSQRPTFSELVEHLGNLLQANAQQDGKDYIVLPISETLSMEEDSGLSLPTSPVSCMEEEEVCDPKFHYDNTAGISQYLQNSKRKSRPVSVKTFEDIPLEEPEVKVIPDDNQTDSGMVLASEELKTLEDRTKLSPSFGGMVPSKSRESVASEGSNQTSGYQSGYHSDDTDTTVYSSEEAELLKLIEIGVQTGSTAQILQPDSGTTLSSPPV

In the case of `CNc1c(C(N)=O)c2ccccn2c1C(=O)c1ccc(F)cc1` [Compound A, 2-methyl-amino-3-[(4-fluorophenyl)carbonyl]indolizine-1-carboxamide], the “% of remaining activity (relative to DMSO)” value (CK1a1; listed as Cmp A) is reported as 5.37%, the remaining activity at 10 µM (CK1a1; [2]) is reported as 5.17% and the “% of remaining activity (relative to DMSO)” value ([1]; CK1d, 10 μM compound, duplicate, listed as Cmp A) is reported as 0.98%. The remaining activity at 10 µM ([1]; CK1d, 10 μM compound, duplicate, read-out: % of remaining activity (relative to DMSO)) was 1.15%, the IC50 ([1]; casein kinase 1 delta, 10-dose, 3 fold serial dilution) was 17.4 nM and the “% of remaining activity (relative to DMSO)” value (CK1g3; listed as Cmp A) was 97.24%. The remaining activity at 10 µM (CK1g3; [2]) was 98.5%, the “% of remaining activity (relative to DMSO)” value (YES/YES1; listed as Cmp A) was 60.09% and the remaining activity at 10 µM (YES/YES1; [2]) was 58.4%. The “% of remaining activity (relative to DMSO)” value (KDR/VEGFR2; listed as Cmp A) was 109.28%, the remaining activity at 10 µM (KDR/VEGFR2; [2]) was 111% and the “% of remaining activity (relative to DMSO)” value (TNIK; listed as Cmp A) was 94.12%. For the same compound, the remaining activity at 10 µM (TNIK; [2]) was 94.4%, the “% of remaining activity (relative to DMSO)” value (GSK3B; listed as Cmp A) was 122.02% and the remaining activity at 10 µM (GSK3B; [2]) was 124%. For the same compound, the “% of remaining activity (relative to DMSO)” value (PKA; listed as Cmp A) was 82.86%, the remaining activity at 10 µM (PKA; [2]) was 84.3% and the “% of remaining activity (relative to DMSO)” value (ALK5/TGFBR1; listed as Cmp A) was 109.38%. For the same compound, the remaining activity at 10 µM (ALK5/TGFBR1; [2]) was 110%, the “% of remaining activity (relative to DMSO)” value (ABL2/ARG; listed as Cmp A) was 70.98% and the remaining activity at 10 µM (ABL2/ARG; [2]) was 71.3%. The “% of remaining activity (relative to DMSO)” value (RIPK2; listed as Cmp A) was 91.39%, the remaining activity at 10 µM (RIPK2; [2]) was 93.5% and the “% of remaining activity (relative to DMSO)” value (PIM3; listed as Cmp A) was 119.96%. For the same compound, the remaining activity at 10 µM (PIM3; [2]) was 125%, the “% of remaining activity (relative to DMSO)” value (CLK2; listed as Cmp A) was 105.40% and the remaining activity at 10 µM (CLK2; [2]) was 100%. For the same compound, the “% of remaining activity (relative to DMSO)” value (JNK2; listed as Cmp A) was 97.26%, the remaining activity at 10 µM (JNK2; [2]) was 99.9% and the “% of remaining activity (relative to DMSO)” value (c-Src; listed as Cmp A) was 60.86%. For the same compound, the remaining activity at 10 µM (c-Src; [2]) was 61%, the “% of remaining activity (relative to DMSO)” value (FGFR1; listed as Cmp A) was 95.15% and the remaining activity at 10 µM (FGFR1; [2]) was 95.7%. The “% of remaining activity (relative to DMSO)” value (EPHA2; listed as Cmp A) was 55.67%, the remaining activity at 10 µM (EPHA2; [2]) was 59% and the “% of remaining activity (relative to DMSO)” value (MSK1/RPS6KA5; listed as Cmp A) was 111.83%. The remaining activity at 10 µM (MSK1/RPS6KA5; [2]) was 117%, the “% of remaining activity (relative to DMSO)” value (PDK1/PDPK1; listed as Cmp A) was 105.50% and the remaining activity at 10 µM (PDK1/PDPK1; [2]) was 107%. For the same compound, the “% of remaining activity (relative to DMSO)” value (EGFR; listed as Cmp A) was 52.51%, the remaining activity at 10 µM (EGFR; [2]) was 55.8% and the “% of remaining activity (relative to DMSO)” value (CDK5/p25; listed as Cmp A) was 88.62%. For the same compound, the remaining activity at 10 µM (CDK5/p25; [2]) was 90.2%.
